How the values were obtained:
Test in all cases: relative viability (nuclei count vs DMSO), 5 days (fraction); higher = more cells survive
[1] = compound: COc1nc(N)nc2c1ncn2[C@@H]1O[C@H](CO)[C@@H](O)[C@@H]1O [Nelarabine] + CC(=O)Nc1cccc(-n2c(=O)n(C3CC3)c(=O)c3c(Nc4ccc(I)cc4F)n(C)c(=O)c(C)c32)c1 [Trametinib] (partner 0.02 µM)
In short: (§1)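 Lung cancer cell lines were seeded in 1536-well plates and dosed by pin tool the next day, with either a single drug or a fixed anchor-drug dose combined with five library-drug doses (not always all listed) spaced in √10 steps. Five days later, one step fixed the cells and stained their nuclei (final 0.05% Triton X-100, 1% formaldehyde, 1 ug/ml Hoechst), and nuclei were counted on 4× images. Relative viability is the nuclei count in treated wells divided by the count in vehicle wells, and each value is the median of duplicate plates.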

[2] = compound: C=CCn1c(=O)c2cnc(Nc3ccc(N4CCN(C)CC4)cc3)nc2n1-c1cccc(C(C)(C)O)n1 [Adavosertib] + N=C(N)NC(=N)NCCc1ccccc1 [Phenformin] (partner 250 µM)
In short: as §1

[3] = compound: COc1nc(N)nc2c1ncn2[C@@H]1O[C@H](CO)[C@@H](O)[C@@H]1O [Nelarabine] + O=C(CCCCCCC(=O)Nc1ccccc1)NO [Vorinostat] (partner 1 µM)
In short: as §1

[4] = compound: COc1nc(N)nc2c1ncn2[C@@H]1O[C@H](CO)[C@@H](O)[C@@H]1O [Nelarabine] + CS(=O)(=O)N1CCN(Cc2cc3nc(-c4cccc5[nH]ncc45)nc(N4CCOCC4)c3s2)CC1 [Pictilisib] (partner 1 µM)
In short: as §1

| Cell Line | relative viability ([1]; first compound 0.01 µM) | relative viability ([1]; first compound 0.03162 µM) | relative viability ([1]; first compound 0.1 µM) | relative viability ([1]; first compound 0.3162 µM) | relative viability ([1]; first compound 1 µM) | relative viability ([2]; first compound 0.01 µM) | relative viability ([2]; first compound 0.03162 µM) | relative viability ([2]; first compound 0.1 µM) | relative viability ([2]; first compound 0.3162 µM) | relative viability ([3]; first compound 0.01 µM) | relative viability ([3]; first compound 0.03162 µM) | relative viability ([3]; first compound 0.1 µM) | relative viability ([3]; first compound 0.3162 µM) | relative viability ([3]; first compound 1 µM) | relative viability ([4]; first compound 0.01 µM) | relative viability ([4]; first compound 0.03162 µM) | relative viability ([4]; first compound 0.1 µM) | relative viability ([4]; first compound 0.3162 µM) | relative viability ([4]; first compound 1 µM) |
| --- | --- | --- | --- | --- | --- | --- | --- | --- | --- | --- | --- | --- | --- | --- | --- | --- | --- | --- | --- |
| HCC-366 | 0.503 | 0.37 | 0.279 | 0.466 | 0.327 | 0.622 | 0.678 | 0.626 | 0.674 | 0.582 | 0.343 | 0.391 | 0.47 | 0.339 | 0.165 | 0.122 | 0.152 | 0.196 | 0.132 |
| HCC-827 | 0.537 | 0.559 | 0.521 | 0.454 | 0.478 | 0.391 | 0.434 | 0.46 | 0.387 | 0.595 | 0.748 | 0.639 | 0.721 | 0.64 | 0.956 | 0.863 | 0.931 | 0.814 | 0.76 |
| HOP-62 | 0.47 | 0.516 | 0.369 | 0.36 | 0.408 | 0.698 | 0.621 | 0.802 | 0.769 | 0.783 | 0.618 | 0.669 | 0.708 | 0.638 | 0.833 | 0.743 | 0.815 | 0.574 | 0.706 |
| IA-LM |  |  |  |  |  |  |  |  |  | 1.11 | 1 | 0.854 | 1.11 | 0.884 | 0.369 | 0.343 | 0.22 | 0.259 | 0.328 |
| LC-2-ad | 1.09 | 1.01 | 0.922 | 0.993 | 0.899 | 0.565 | 0.635 | 0.621 | 0.597 | 0.814 | 0.738 | 0.67 | 0.721 | 0.676 | 0.624 | 0.467 | 0.428 | 0.482 | 0.468 |
| LCLC-97TM1 |  |  | 0.189 | 0.203 | 0.224 | 0.428 | 0.397 | 0.488 | 0.417 |  |  | 0.464 | 0.819 | 0.713 | 0.196 | 0.202 | 0.152 | 0.248 | 0.22 |
| LCLC-103H | 0.72 | 0.68 | 0.751 | 0.758 | 0.69 | 0.347 | 0.372 | 0.319 | 0.3 | 0.905 | 0.76 | 0.795 | 0.856 | 0.808 | 0.756 | 0.811 | 0.62 | 0.671 | 0.652 |
| LK-2 | 0.903 | 0.474 | 0.795 | 0.956 | 0.86 | 0.75 | 0.435 | 0.364 | 0.397 | 0.242 | 0.256 | 0.334 | 0.294 | 0.283 | 0.68 |  | 0.503 | 0.436 | 0.651 |
| LOU-NH91 | 0.856 | 0.731 | 0.769 | 0.804 | 0.794 | 0.661 | 0.743 | 0.687 | 0.725 | 0.993 | 0.814 | 0.889 | 0.931 | 0.873 | 0.515 | 0.464 | 0.487 | 0.527 | 0.54 |
| LU99A | 0.548 | 0.552 | 0.554 | 0.561 | 0.599 | 0.963 | 0.808 | 0.982 | 0.826 | 0.615 | 0.417 | 0.579 | 0.467 | 0.39 | 0.302 | 0.269 | 0.327 | 0.321 | 0.299 |
| LXF-289 | 0.714 | 0.74 | 0.673 | 0.667 | 0.73 | 0.528 | 0.553 | 0.527 | 0.561 | 0.84 | 0.698 | 0.674 | 0.807 | 0.662 | 0.739 | 0.841 | 0.845 | 0.801 | 0.751 |
| NCI-H23 | 0.403 | 0.404 | 0.343 | 0.378 | 0.409 | 0.732 | 0.759 | 0.838 | 0.585 | 0.737 | 0.604 | 0.548 | 0.615 | 0.584 | 0.494 | 0.499 | 0.528 | 0.459 | 0.51 |
| NCI-H322M | 0.547 | 0.505 | 0.383 | 0.402 | 0.511 | 0.737 | 0.759 | 0.656 | 0.342 | 0.942 | 0.856 | 0.954 | 0.943 | 0.802 | 0.505 | 0.523 | 0.433 | 0.568 | 0.542 |
| NCI-H358 | 0.124 | 0.14 | 0.109 | 0.149 | 0.123 | 0.288 | 0.295 | 0.322 | 0.24 | 0.852 | 1.02 | 0.663 | 0.791 | 0.617 | 0.374 | 0.3 | 0.294 | 0.362 | 0.328 |
| NCI-H522 | 0.82 | 1.03 | 0.662 | 0.726 | 0.742 | 0.679 | 0.57 | 0.691 | 0.676 | 1.02 | 0.857 | 0.683 | 0.867 | 0.934 |  |  |  |  |  |
| NCI-H1299 |  |  |  |  |  |  |  |  |  |  |  |  |  |  | 1.06 | 0.899 | 0.857 | 0.861 | 0.757 |
| NCI-H1563 |  |  |  |  |  | 0.692 | 0.603 | 0.667 | 0.642 |  |  |  |  |  | 0.605 | 0.634 | 0.641 | 0.67 | 0.626 |
| NCI-H1648 |  | 0.656 |  | 0.451 | 0.477 |  |  |  |  |  | 0.761 |  | 0.412 | 0.642 |  |  |  |  |  |
| NCI-H1703 |  |  |  |  |  |  |  |  |  |  |  |  |  |  | 0.248 |  | 0.237 | 0.211 | 0.227 |
| NCI-H1792 | 0.541 | 0.513 | 0.418 | 0.373 | 0.508 | 0.27 | 0.217 |  | 0.259 |  |  |  |  |  | 0.348 |  | 0.323 | 0.326 | 0.323 |
| NCI-H2342 | 0.87 | 0.825 | 0.847 | 0.701 | 0.907 | 0.569 | 0.587 | 0.571 | 0.572 | 0.933 | 0.753 | 0.806 | 0.74 | 0.728 |  |  |  |  |  |
| SW 900 | 0.642 | 0.778 | 0.765 | 0.777 | 0.753 |  | 0.75 | 0.564 | 0.387 | 0.471 | 0.567 | 0.795 | 0.628 | 0.448 |  |  |  |  |  |

Source: the supplement of paper PMC10307832
